Assay results published in patent publication US20080280911A1, “Cinnoline Compounds as Inhibitors of Phosphodiesterase Type IV (Pde4)” (Glaxo Group Limited, priority 2005, published 2008).

Biological target: T1, PDE4B (human recombinant) enzyme (Homo sapiens, UniProt Q07343)
T1 construct: made in house; host or cells: Saccharomyces cerevisiae strain GL62 (PDE-deficient yeast), as described in WO 94/20079
Test: Inhibition of PDE4B catalytic activity, IMAP fluorescence polarisation (FP) assay
Format: biochemical
Settings: inhibition of catalytic activity at PDE4B (human recombinant); FP assay described above or similar
From the text: Human recombinant PDE4B, in particular the 2B splice variant thereof (HSPDE4B2B), is disclosed in WO 94/20079 and also in M. M. McLaughlin et al., “A low Km, rolipram-sensitive, cAMP-specific phosphodiesterase from human brain: cloning and expression of cDNA, biochemical characterisation of recombinant protein, and tissue distribution of mRNA”, J. Biol. Chem., 1993, 268, 6470-6476. For example, in Example 1 of WO 94/20079, human recombinant PDE4B is described as being expressed in the PDE-deficient yeast Saccharomyces cerevisiae strain GL62, e.g. after induction by addition of 150 uM CuSO4, and 100,000×g supernatant fractions of yeast cell lysates are described for use in the harvesting of PDE4B enzyme.
The ability of compounds to inhibit PDE catalytic activity was determined by IMAP Fluorescence Polarisation (FP) assay (Molecular Devices Ltd code: R8062) in 384-well format. […]
For the PDE3, PDE4B and PDE4D assays Fluorescein adenosine 3′,5′-cyclic phosphate (Molecular Devices Ltd code: R7091) was added to give ˜40 nM final concentration. […] The FP ratio of parallel to perpendicular light was measured using an Analyst™ plate reader (from Molecular Devices Ltd). […] Curves were analysed using ActivityBase and XLfit (ID Business Solutions Limited). Results were expressed as pIC50 values.

T1 sequence (Q07343 1-564 isoform Q07343-2): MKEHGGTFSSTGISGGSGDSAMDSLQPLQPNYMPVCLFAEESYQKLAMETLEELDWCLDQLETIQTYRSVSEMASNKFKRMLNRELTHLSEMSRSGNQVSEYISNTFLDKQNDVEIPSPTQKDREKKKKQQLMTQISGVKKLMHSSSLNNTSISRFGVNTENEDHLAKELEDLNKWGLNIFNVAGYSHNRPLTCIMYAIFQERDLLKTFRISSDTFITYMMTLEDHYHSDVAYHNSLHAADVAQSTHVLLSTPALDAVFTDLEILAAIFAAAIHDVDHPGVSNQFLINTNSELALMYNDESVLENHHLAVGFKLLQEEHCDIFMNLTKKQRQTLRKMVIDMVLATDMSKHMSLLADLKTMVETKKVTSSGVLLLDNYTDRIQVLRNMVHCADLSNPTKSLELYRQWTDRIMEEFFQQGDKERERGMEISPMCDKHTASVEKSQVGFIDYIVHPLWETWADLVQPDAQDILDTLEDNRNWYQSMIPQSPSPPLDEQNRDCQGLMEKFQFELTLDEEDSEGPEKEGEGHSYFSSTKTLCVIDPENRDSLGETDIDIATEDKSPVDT

IC50: ~0.1 nM
Structure (SMILES): Cc1cc(S(C)(=O)=O)cc2c(Nc3cccc(C#N)c3)c(C(N)=O)nnc12 [Example 1, 4-[(3-Cyanophenyl)amino]-8-methyl-6-(methylsulfonyl)-3-cinnolinecarboxamide]
